{"source": "patent US20230354835A1", "about": "“USE OF LIQUID SMOKE IN CONJUNCTION WITH FOOD GRADE COATINGS TO CONTROL PEST INFESTATIONS” (Mississippi State University, priority 2022, published 2023)", "origin": "cited, not measured here", "system": "Tyrophagus putrescentiae", "conditions": "Abbar et al., 2016a; coating on ham cubes 2.5×2.5×2.5 cm^3"}
{"molecule": "CC(O)CO", "note": "(stereo not shown) [100% propylene glycol, 1,2-propanediol]", "values": [{"measurement": "Inhibition of mite growth on dry-cured ham cubes (in words)", "value": "effective at inhibiting mite growth"}]}
